Reference: ChEMBL document CHEMBL1148207, “Dictyosphaeric acids A and B: new decalactones from an undescribed Penicillium sp. obtained from the alga Dictyosphaeria versluyii” (2004)
The source made the active and inactive calls. The rule behind the calls is not given here.

Columns and labels:
Candida albicans [1] = experiment: Antimicrobial activity against Candida albicans at 50 ug/well; assay type: functional
Staphylococcus aureus [2] = experiment: Antibacterial activity against methicillin-resistant Staphylococcus aureus at 50 ug/well; assay type: functional
Staphylococcus aureus [3] = experiment: Antibacterial activity against methicillin-sensitive Staphylococcus aureus at 50 ug/well; assay type: functional
Enterococcus faecium [4] = experiment: Antibacterial activity against vancomycin-resistant Enterococcus faecium at 50 ug/well; assay type: functional
Staphylococcus aureus [5] = experiment: Antibacterial activity against methicillin-sensitive Staphylococcus aureus at 200 ug/well; assay type: functional, organism-based
Candida albicans [6] = experiment: Antimicrobial activity against Candida albicans at 200 ug/well; assay type: functional, organism-based
Enterococcus faecium [7] = experiment: Antibacterial activity against vancomycin-resistant Enterococcus faecium at 200 ug/well; assay type: functional, organism-based
Staphylococcus aureus [8] = experiment: Antibacterial activity against methicillin-resistant Staphylococcus aureus at 200 ug/well; assay type: functional, organism-based

Row | Compound | zone of inhibition at 50 µg/disc (Candida albicans [1]; read-out: IZ) [mm] | zone of inhibition at 50 µg/disc (Staphylococcus aureus [2]; read-out: IZ) [mm] | zone of inhibition at 50 µg/disc (Staphylococcus aureus [3]; read-out: IZ) [mm] | zone of inhibition at 50 µg/disc (Enterococcus faecium [4]; read-out: IZ) [mm] | Activity (Candida albicans [1]) | Activity (Staphylococcus aureus [2]) | Activity (Staphylococcus aureus [3]) | Activity (Staphylococcus aureus [5]) | Activity (Candida albicans [6]) | Activity (Enterococcus faecium [7]) | Activity (Enterococcus faecium [4]) | Activity (Staphylococcus aureus [8])
1 | C[C@H]1CCC[C@@H](O)[C@]2(O)C(=O)C=C[C@@H]3OC(/C=C/C=C/C=C/C(=O)O)=C(C(=O)O1)[C@@H]32 [DICTYOSPHAERIC ACID A] | 7 | 12 | 11 | 7 |  |  |  |  |  |  |  | 
2 | COc1cc(CO)cc2c1C(=O)c1c(O)cc(O)cc1C2=O |  |  |  |  | inactive | inactive | inactive | inactive | inactive | inactive | inactive | inactive
3 | C[C@H]1CCC[C@@H](O)[C@]2(O)C(=O)C[C@H](O)[C@@H]3OC(/C=C/C=C/C=C/C(=O)O)=C(C(=O)O1)[C@@H]32 |  |  |  |  | inactive | inactive | inactive |  |  |  | inactive | 
